Measurements: publication PMC9500407, “Quantifying the transport of biologics across intestinal barrier models in real-time by fluorescent imaging” (Frontiers in Bioengineering and Biotechnology, 2022)

Assays:
[1] = tested on: Caco-2:HT29-MTX E12 coculture tubules; assay: Live cell imaging of cellular uptake and intracellular localization in coculture tubules; format: cell-based, human
Procedure: Spinning disc (SD) confocal microscopy was performed on a Nikon Ti2 inverted microscope equipped with a Yokogawa CSU-W1 module and a Photometrics Prime 95B sCMOS camera was used for all experiments (excl. Image-based TAT transport). The set-up includes four excitation lasers 405/488/561/638 nm with 442/42, 520/28 BrightLine HC filters and 600/50 ET, 700/75 ET bandpass filters. For this work, a set of CFI Plan Apochromat Lambda objectives were used: ×4/0.2, 20x/0.75, 60x/1.4 and 100x/1.45. For image-based transport experiments, epi-fluorescence microscopy was performed using a Nikon Eclipse Ti2 microscope equipped with an LED source (CoolLED), a dual-band filter cube (AHF, Excitation 455–489 nm, 557–588 nm; Emission 506–542 nm, 605–660 nm) and a Photometrics Evolve 512 electron-multiplying charge-coupled device camera was used (10x N.A. 0.30).
Here, the cells were counterstained with Hoechst (H1399, Thermo Fischer, 10 μg ml^−1) and incubated for 1 h at 37°C, 5% CO2, washed with PBS and images were acquired using SD confocal microscopy with 488 nm laser and 520/28 BrightLine HC filters for detecting FITC-labelled TAT and the 405 nm laser and 442/42 BrightLine HC filter for acquiring Hoechst. […] The transport of TAT was tracked over 2 h, acquiring time lapse images every 30 s using epi-fluorescence microscopy (see Imaging modalities). […]

[2] = tested on: Caco-2:HT29-MTX E12 coculture tubules; assay: Barrier integrity monitored by co-applied TRITC-dextran (TD) during peptide transport; format: cell-based, human; settings: INS chips with and without TAT
Procedure: Here, the cells were counterstained with Hoechst (H1399, Thermo Fischer, 10 μg ml^−1) and incubated for 1 h at 37°C, 5% CO2, washed with PBS and images were acquired using SD confocal microscopy with 488 nm laser and 520/28 BrightLine HC filters for detecting FITC-labelled TAT and the 405 nm laser and 442/42 BrightLine HC filter for acquiring Hoechst. The cell tubules exposed to TAT/INS (24 µM/50 μM, IS1-AF647-1, Nanocs) were stained with above mentioned cellular dyes and CellMask-green (C37608, Thermo Fisher, 1:500) for 30 min on ice after 3 h of incubation. The transport of TAT was tracked over 2 h, acquiring time lapse images every 30 s using epi-fluorescence microscopy (see Imaging modalities). […] To simultaneously monitor the barrier integrity TD (0.5 mg ml^−1) was co-applied to the chips and measured in parallel to TAT. For the quantification of both TAT, INS and TD transport across the cell barrier, calibration curves were established. […]
Next we used the platform to study the barrier transport kinetics of TAT. We performed whole-chip real-time live cell imaging, to quantify the concentration of TAT transported across the coculture cell layer and reaching the receiving channel (Figure 6B). […] Both the FITC and TRITC channels were recorded for each tubular system every 30 s for a total of 2.5 h. […]

[3] = tested on: Caco-2:HT29-MTX E12 coculture tubules; assay: Image-based real-time quantification of TAT and TAT/INS transport across coculture tubules; settings: 50 µM INS, whether or not TAT (24 µM) was present, over 3 h, n = 3
Procedure: We performed whole-chip real-time live cell imaging, to quantify the concentration of TAT transported across the coculture cell layer and reaching the receiving channel (Figure 6B). […] Both the FITC and TRITC channels were recorded for each tubular system every 30 s for a total of 2.5 h. […] A calibration experiment where known concentrations of TAT or TD were added to a chip without cells allowed us to convert the measured intensities to actual concentration in μM and mg mL^−1 respectively (Supplementary Figure S5). […]

“INS: AlexaFluor647-labeled insulin (IS1-AF647-1, Nanocs)” was tested, and the “Intracellular localization of INS” value ([1]; INS and INS/TAT, 3 h, 100x, indicating endosomal uptake) was “localized inside the cytosol in punctual patterns”, the “Cellular internalization of INS” value ([1]; after 3 h, live cell imaging, with and without TAT) was “internalized into the enterocyte cell layer even without TAT” and the Barrier integrity [2] was “not compromised significantly”. For the same substance, the “INS transport across the cell barrier” value [3] was “no INS transport across the cell barrier”.
